Measurements: PubChem BioAssay AID1259407 (Chemical Carcinogenesis Research Information System (CCRIS), 2018)
Active and inactive are the calls of the source. The rule behind the calls is not given here.

System: CCRIS mutagenicity, Ames/micronucleus/aberration tests
Experiment: CCRIS mutagenicity studies
[1] = Test System: AMES SALMONELLA TYPHIMURIUM, Strain/Indicator: TA97, Metabolic Activation: NONE, Method: STANDARD PLATE
[2] = Test System: AMES SALMONELLA TYPHIMURIUM, Strain/Indicator: TA98, Metabolic Activation: NONE, Method: STANDARD PLATE
[3] = Test System: AMES SALMONELLA TYPHIMURIUM, Strain/Indicator: TA98, Metabolic Activation: RAT, LIVER, S-9, AROCLOR 1254, Method: STANDARD PLATE
[4] = Test System: AMES SALMONELLA TYPHIMURIUM, Strain/Indicator: TA100, Metabolic Activation: NONE, Method: STANDARD PLATE
[5] = Test System: AMES SALMONELLA TYPHIMURIUM, Strain/Indicator: TA100, Metabolic Activation: RAT, LIVER, S-9, AROCLOR 1254, Method: STANDARD PLATE
[6] = Test System: MOUSE LYMPHOMA, Strain/Indicator: L5178Y (TK+/TK-), Metabolic Activation: NONE, Method: SUSPENSION/PLATE
[7] = Test System: MOUSE LYMPHOMA, Strain/Indicator: L5178Y (TK+/TK-), Metabolic Activation: RAT, LIVER, S-9, AROCLOR 1254, Method: SUSPENSION/PLATE
[8] = Test System: AMES SALMONELLA TYPHIMURIUM, Strain/Indicator: TA98, Metabolic Activation: S-9, Method: STANDARD PLATE
[9] = Test System: AMES SALMONELLA TYPHIMURIUM, Strain/Indicator: TA100, Metabolic Activation: S-9, Method: STANDARD PLATE

For CN(C)C=O, the mutagenic call [1] was “inactive; negative”, the mutagenic call (Test System: AMES SALMONELLA TYPHIMURIUM, Strain/Indicator: TA97, Metabolic Activation: RAT, LIVER, S-9, AROCLOR 1254, Method: STANDARD PLATE) was “inactive; negative” and the mutagenic call [2] was “inactive; negative”. For the same compound, the mutagenic call [3] was “inactive; negative”, the mutagenic call [4] was “inactive; negative” and the mutagenic call [5] was “inactive; negative”. The mutagenic call (Test System: Ames Salmonella typhimurium, Strain/Indicator: TA98, Metabolic Activation: None, Method: Gas exposure method) was “inactive; negative”, the mutagenic call (Test System: Ames Salmonella typhimurium, Strain/Indicator: TA98, Metabolic Activation: Rat, Liver, S9, Sodium phenobarbital and 5,6-benzoflavone (10%), Method: Gas exposure method) was “inactive; negative” and the mutagenic call (Test System: Ames Salmonella typhimurium, Strain/Indicator: TA100, Metabolic Activation: None, Method: Gas exposure method) was “inactive; negative”. For the same compound, the mutagenic call (Test System: Ames Salmonella typhimurium, Strain/Indicator: TA100, Metabolic Activation: Rat, Liver, S9, Sodium phenobarbital and 5,6-benzoflavone (10%), Method: Gas exposure method) was “inactive; negative”, the mutagenic call (Test System: Ames Salmonella typhimurium, Strain/Indicator: TA1535, Metabolic Activation: None, Method: Gas exposure method) was “inactive; negative” and the mutagenic call (Test System: Ames Salmonella typhimurium, Strain/Indicator: TA1535, Metabolic Activation: Rat, Liver, S9, Sodium phenobarbital and 5,6-benzoflavone (10%), Method: Gas exposure method) was “inactive; negative”. For the same compound, the mutagenic call (Test System: Ames Salmonella typhimurium, Strain/Indicator: TA1537, Metabolic Activation: None, Method: Gas exposure method) was “inactive; negative”, the mutagenic call (Test System: Ames Salmonella typhimurium, Strain/Indicator: TA1537, Metabolic Activation: Rat, Liver, S9, Sodium phenobarbital and 5,6-benzoflavone (10%), Method: Gas exposure method) was “inactive; negative” and the mutagenic call (Test System: E. coli, Strain/Indicator: WP2uvrA/pKM101, Metabolic Activation: None, Method: Gas exposure method) was “inactive; negative”. For the same compound, the mutagenic call (Test System: E. coli, Strain/Indicator: WP2uvrA/pKM101, Metabolic Activation: Rat, Liver, S9, Sodium phenobarbital and 5,6-benzoflavone (10%), Method: Gas exposure method) was “inactive; negative”, the mutagenic call [6] was “inactive; negative” and the mutagenic call [7] was “inactive; negative”. The mutagenic call (Test System: MOUSE LYMPHOMA, Strain/Indicator: L5178Y (TK+/TK-), Metabolic Activation: RAT, LIVER, S-9, Method: SUSPENSION/PLATE) was “inactive; negative”.

c1ccc2sc(SNC3CCCCC3)nc2c1 was tested, and the mutagenic call [2] was “inactive; negative”, the mutagenic call [8] was “inactive; negative” and the mutagenic call [4] was “inactive; negative”. The mutagenic call [9] was “inactive; negative”.

With CN(OC(=O)c1ccccc1)c1ccc(N=Nc2ccccc2)cc1 the mutagenic call (Test System: AMES SALMONELLA TYPHIMURIUM, Strain/Indicator: TA98, Metabolic Activation: RAT, LIVER, S-9, KC500 OR PHENOBARBITAL, Method: LIQUID SUSPENSION) was “active; positive” and the mutagenic call (Test System: AMES SALMONELLA TYPHIMURIUM, Strain/Indicator: TA100, Metabolic Activation: RAT, LIVER, S-9, KC500 OR PHENOBARBITAL, Method: LIQUID SUSPENSION) was “active; positive”.

In the case of NNc1nncc2ccncc12, the mutagenic call (Test System: AMES SALMONELLA TYPHIMURIUM, Strain/Indicator: TA98, Metabolic Activation: NONE, Method: PREINCUBATION) is reported as “active; positive”, the mutagenic call (Test System: AMES SALMONELLA TYPHIMURIUM, Strain/Indicator: TA98, Metabolic Activation: RAT, LIVER, S-9, PCB, Method: PREINCUBATION) is reported as “active; positive” and the mutagenic call (Test System: AMES SALMONELLA TYPHIMURIUM, Strain/Indicator: TA100, Metabolic Activation: NONE, Method: PREINCUBATION) is reported as “active; positive”. For the same compound, the mutagenic call (Test System: AMES SALMONELLA TYPHIMURIUM, Strain/Indicator: TA100, Metabolic Activation: RAT, LIVER, S-9, PCB, Method: PREINCUBATION) was “active; positive”.

For CN(C)c1ccc(C(=C2C=CC(=[N+](C)C)C=C2)c2ccc(N(C)C)cc2)cc1, the mutagenic call [1] was “inactive; negative”, the mutagenic call [2] was “inactive; negative” and the mutagenic call [3] was “inactive; negative”. For the same compound, the mutagenic call [4] was “inactive; negative”, the mutagenic call [5] was “inactive; negative” and the mutagenic call (Test System: AMES SALMONELLA TYPHIMURIUM, Strain/Indicator: TA104, Metabolic Activation: NONE, Method: STANDARD PLATE) was “inactive; negative”. For the same compound, the mutagenic call (Test System: AMES SALMONELLA TYPHIMURIUM, Strain/Indicator: TA1535, Metabolic Activation: NONE, Method: STANDARD PLATE) was “inactive; negative”, the mutagenic call (Test System: AMES SALMONELLA TYPHIMURIUM, Strain/Indicator: TA1535, Metabolic Activation: RAT, LIVER, S-9, AROCLOR 1254, Method: STANDARD PLATE) was “inactive; negative” and the mutagenic call (Test System: CHINESE HAMSTER OVARY, Strain/Indicator: CHO-AS52 (GPT)/6-THIOGUANINE, Metabolic Activation: RAT, LIVER, S-9, AROCLOR 1254) was “inactive; negative”. For the same compound, the mutagenic call (Test System: CHINESE HAMSTER OVARY, Strain/Indicator: CHO-K1-BH4 (HPRT)/6-THIOGUANINE, Metabolic Activation: NONE) was “inactive; negative”, the mutagenic call (Test System: CHINESE HAMSTER OVARY, Strain/Indicator: CHO-K1-BH4 (HPRT)/6-THIOGUANINE, Metabolic Activation: RAT, LIVER, S-9, AROCLOR 1254) was “inactive; negative” and the mutagenic call (Test System: E. COLI, Strain/Indicator: DG1669, Metabolic Activation: NONE, Method: STANDARD PLATE) was “active; positive”. The mutagenic call (Test System: E. COLI, Strain/Indicator: DG1669, Metabolic Activation: RAT, LIVER, S-9, AROCLOR 1254, Method: STANDARD PLATE) was “active; positive”.

In the case of O=C1Nc2ccc([N+](=O)[O-])cc2C1=O, the mutagenic call (Test System: AMES SALMONELLA TYPHIMURIUM, Strain/Indicator: TA98, Metabolic Activation: HAMSTER, LIVER, S-9, AROCLOR 1254, Method: STANDARD PLATE) is reported as “active; positive”, the mutagenic call [2] is reported as “active; positive” and the mutagenic call [3] is reported as “active; positive”. The mutagenic call (Test System: AMES SALMONELLA TYPHIMURIUM, Strain/Indicator: TA100, Metabolic Activation: HAMSTER, LIVER, S-9, AROCLOR 1254, Method: STANDARD PLATE) was “active; positive”, the mutagenic call [4] was “active; positive” and the mutagenic call [5] was “active; positive”. For the same compound, the mutagenic call [6] was “active; positive. reevaluation of results: positive” and the mutagenic call [7] was “active; positive. reevaluation of results: equivocal”.

For Nc1ccc(/C=C/c2ccc(N)cc2)cc1, the mutagenic call (Test System: AMES SALMONELLA TYPHIMURIUM, Strain/Indicator: TA98(1,8-DNP6), Metabolic Activation: NONE, Method: STANDARD PLATE) was “inactive; negative”, the mutagenic call (Test System: AMES SALMONELLA TYPHIMURIUM, Strain/Indicator: TA98(1,8-DNP6), Metabolic Activation: S-9, Method: STANDARD PLATE) was “inactive; negative” and the mutagenic call [2] was “inactive; negative”. For the same compound, the mutagenic call [3] was “active; positive”, the mutagenic call [8] was “active; positive” and the mutagenic call [4] was “inactive; negative”. For the same compound, the mutagenic call [5] was “inactive; negative” and the mutagenic call [9] was “inactive; negative”.
